Data: ChEMBL document CHEMBL1201862, “PubChem BioAssay data set” (2004)
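Grown in 96-well plates, cells were treated for 48 hours with each compound at five concentrations. Insufficient inhibition: endpoint recorded as highest concentration tested. At the GI50, growth is halved.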 The source made the active and inactive calls. Cut-off read from the data, not from the text of the source: active = GI50 up to about 1.1 µM and inactive = higher.

Experiments:
Experiment in all cases: growth of human tumour cells (NCI), 48 h
SNB-19 = test system: SNB-19
A498 = test system: A498
T47D = test system: T47D
HL-60 = test system: HL-60
PC-3 = test system: PC-3
M14 = test system: M14
MDA-MB-435 = test system: MDA-MB-435
OVCAR-5 = test system: OVCAR-5
MOLT-4 = test system: MOLT-4
SF-295 = test system: SF-295
HCT-116 = test system: HCT-116
IGROV-1 = test system: IGROV-1
BT-549 = test system: BT-549
786-0 = test system: 786-0
HOP-62 = test system: HOP-62
Hs-578T = test system: Hs-578T
NCI/ADR-RES = test system: NCI/ADR-RES
COLO 205 = test system: COLO 205
LOX IMVI = test system: LOX IMVI

SMILES	GI50 (SNB-19)	GI50 (A498)	GI50 (T47D)	GI50 (HL-60)	GI50 (PC-3)	GI50 (M14)	GI50 (MDA-MB-435)	GI50 (OVCAR-5)	GI50 (MOLT-4)	GI50 (SF-295)	GI50 (HCT-116)	GI50 (IGROV-1)	GI50 (BT-549)	GI50 (786-0)	GI50 (HOP-62)	GI50 (Hs-578T)	GI50 (NCI/ADR-RES)	GI50 (COLO 205)	GI50 (LOX IMVI)
COc1cc2c(cc1Cc1c(F)cccc1Cl)nc(-c1c(F)cccc1Cl)n2Cc1c(F)cccc1Cl	33.2 µM (inactive)	27.3 µM (inactive)	10.2 µM (inactive)	78.5 µM (inactive)	10.7 µM (inactive)	> 100 µM (inactive)	33.1 µM (inactive)	48.8 µM (inactive)	36 µM (inactive)	14 µM (inactive)	20 µM (inactive)	32.4 µM (inactive)	28.8 µM (inactive)	24.4 µM (inactive)	36.1 µM (inactive)	21.3 µM (inactive)	38.7 µM (inactive)	44.8 µM (inactive)	–
O=c1cc(NNc2cccc(F)c2)[nH]c(=O)[nH]1	> 100 µM (inactive)	> 100 µM (inactive)	14.9 µM (inactive)	19.1 µM (inactive)	> 100 µM (inactive)	18.2 µM (inactive)	–	> 100 µM (inactive)	27.9 µM (inactive)	> 100 µM (inactive)	17.3 µM (inactive)	19.8 µM (inactive)	> 100 µM (inactive)	16.6 µM (inactive)	> 100 µM (inactive)	83 µM (inactive)	> 100 µM (inactive)	34.6 µM (inactive)	18 µM (inactive)
O=C(CCc1ccc(O)cc1)NCCCNC(=O)CCc1ccc(O)cc1	> 100 µM (inactive)	> 100 µM (inactive)	> 100 µM (inactive)	–	> 100 µM (inactive)	> 100 µM (inactive)	> 100 µM (inactive)	> 100 µM (inactive)	> 100 µM (inactive)	> 100 µM (inactive)	> 100 µM (inactive)	> 100 µM (inactive)	> 100 µM (inactive)	> 100 µM (inactive)	> 100 µM (inactive)	> 100 µM (inactive)	> 100 µM (inactive)	> 100 µM (inactive)	> 100 µM (inactive)
COc1ccc(C2C=C(c3ccc4c(c3)OCO4)Oc3c2c(=O)oc2ccccc32)cc1OC (centres undefined)	0.422 µM (active)	0.502 µM (active)	–	0.248 µM (active)	0.429 µM (active)	0.502 µM (active)	0.152 µM (active)	0.556 µM (active)	0.968 µM (active)	0.279 µM (active)	0.482 µM (active)	0.634 µM (active)	3.18 µM (inactive)	0.43 µM (active)	> 100 µM (inactive)	0.513 µM (active)	0.543 µM (active)	0.361 µM (active)	0.593 µM (active)
O=C(/C=C1/Nc2ccc([N+](=O)[O-])cc2N/C1=C/C(=O)c1ccc(Cl)cc1)c1ccccc1	37 µM (inactive)	35.6 µM (inactive)	> 100 µM (inactive)	–	> 100 µM (inactive)	> 100 µM (inactive)	> 100 µM (inactive)	> 100 µM (inactive)	> 100 µM (inactive)	23.4 µM (inactive)	56.9 µM (inactive)	> 100 µM (inactive)	> 100 µM (inactive)	48.3 µM (inactive)	20.8 µM (inactive)	–	60.3 µM (inactive)	> 100 µM (inactive)	–
Cc1cc2[nH]c3c(C#N)c(-c4ccccc4)c(/C=N/c4ccc(Cl)cc4)c(=O)n3c2cc1C	> 100 µM (inactive)	> 100 µM (inactive)	> 100 µM (inactive)	–	> 100 µM (inactive)	> 100 µM (inactive)	> 100 µM (inactive)	> 100 µM (inactive)	–	> 100 µM (inactive)	> 100 µM (inactive)	–	> 100 µM (inactive)	> 100 µM (inactive)	> 100 µM (inactive)	–	> 100 µM (inactive)	> 100 µM (inactive)	> 100 µM (inactive)
CSCCCNC(=O)c1csc(-c2csc(C(CNC(=O)OC(C)(C)C)CNC(=O)OC(C)(C)C)n2)n1	58.3 µM (inactive)	55.2 µM (inactive)	29.2 µM (inactive)	–	28.4 µM (inactive)	47 µM (inactive)	45 µM (inactive)	67 µM (inactive)	16.8 µM (inactive)	38.6 µM (inactive)	31.4 µM (inactive)	33.3 µM (inactive)	34.5 µM (inactive)	50.4 µM (inactive)	33.7 µM (inactive)	45.8 µM (inactive)	24.8 µM (inactive)	34 µM (inactive)	39.8 µM (inactive)
COC1CN(C)/C(=N\c2cccc3ccccc23)S1 (centres undefined)	> 10 µM (inactive)	–	> 10 µM (inactive)	> 10 µM (inactive)	> 10 µM (inactive)	> 10 µM (inactive)	> 10 µM (inactive)	> 10 µM (inactive)	> 10 µM (inactive)	2.75 µM (inactive)	> 10 µM (inactive)	> 10 µM (inactive)	> 10 µM (inactive)	> 10 µM (inactive)	> 10 µM (inactive)	> 10 µM (inactive)	> 10 µM (inactive)	> 10 µM (inactive)	> 10 µM (inactive)
